Experiments:
[1] = test system: Na+-dependent Cl-/HCO3 exchanger (NCBE); test: Inhibition of the Na+-dependent Cl-/HCO3- exchanger (NCBE) in human endothelial cells (BCECF fluorescence, FLIPR, pHi recovery); type: cell-based; settings: inhibitor concentration of 10 μM; human endothelial cells (ECV-304); in presence of 50 μM HOE 642
Experimental: Inhibition of the Na^+-dependent Cl^−/HCO3 exchanger (NCBE) in human endothelial cells
Human endothelial cells (ECV-304) were detached from culture flasks with the aid of trypsin/EDTA buffer (0.05/0.02% in phosphate buffer) and, after centrifugation (100 g, 5 min), taken up in a buffered salt solution (mmol/l: 115 NaCl, 20 NH4Cl, 5 KCl, 1 CaCl2, 1 MgSO4, 20 N-(2-hydroxyethyl)piperazine-N=-2-ethanesulfonic acid (HEPES), 5 glucose and 1, g/l of bovine serum albumin; pH 7.4). This cell suspension was incubated at 37° C. for 20 min with 5 μM BCECF acetoxymethyl ester. The cells were then washed and resuspended in a sodium- and bicarbonate-free buffer solution (mmol/l: 5 HEPES, 133.8 choline chloride, 4.7 KCl, 1.25 MgCl2, 0.97 K2HPO4, 0.23 KH2PO4, 5 glucose; pH 7.4).
For the subsequent fluorescence measurement in the FLIPR (Fluorescent Imaging Plate Reader), 100 μl of this cell suspension in each case containing 20,000 cells were added by pipette per well of a 96-well microtiter plate and this microtiter plate was centrifuged (100 g, 5 min). In the FLIPR, 100 μl of buffer solution in each case were then removed from a further prepared microtiter plate and added by pipette to each of the 96 wells of the measuring plate. In this case, for a 100% control, i.e. a recovery of the intracellular pH (pHi) by means of the NCBE, a bicarbonate- and sodium-containing buffer solution (mmol/l: 5 HEPES, 93.8 NaCl, 40 NaHCO3, 4.7 KCl, 1.25 CaCl2, 1.25 MgCl2, 0.97 Na2HPO4, 0.23 NaH2PO4, 5 glucose; pH 7.4) which contained 50 μM HOE 642 was used. […]
After addition of the buffer solutions to the dye-loaded acidified cells situated in the measuring plate, the increase in the fluorescence intensity which corresponded to an increase in the pHi was determined in each well of the microtiter plate. The kinetics were in this case recorded at 35° C. over a period of 2 minutes.
The increase in the fluorescence intensities for different concentrations of the compounds according to the invention was related to the two controls and from this the inhibitory action of the substances was determined.

Row | Compound | Residual activity of the NCBE [1] [%] | melting point [°C]
1 | CCCCc1nc(SC)c(C(=O)OCC)n1Cc1cccc(Cc2cccc(S(=O)(=O)NC#N)c2)c1 [Example 2, Ethyl 2-butyl-5-methylsulfanyl-3-[3-(3′-cyanoaminosulfonylbenzyl)benzyl]-3H-imidazole-4-carboxylate] | 35.2 | 172 to 174
2 | CCCCc1nc(SC)c(C(=O)OCC)n1Cc1ccc(Cc2cccc(S(=O)(=O)NC#N)c2)cc1 [Example 1, Ethyl 2-butyl-5-methylsulfanyl-3-[4-(3′-cyanoaminosulfonylbenzyl)benzyl]-3H-imidazole-4-carboxylate] | 11.1 | 62
3 | N#CNS(=O)(=O)c1cccc(Cc2cccc(Cn3c(-c4ccccc4)nc(Cl)c3C=O)c2)c1 [Example 3, 2-Phenyl-4-formyl-5-chloro-3-[3-(3′-cyanoaminosulfonylbenzyl)benzyl]-3H-imidazole] | 24.3 | 75

From patent US6573288B1, “Substituted sulphonyl cyanamides, method for producing same and their use as medicament” (Aventis Pharma Deutschland GmbH, priority 1998, dated 2003)
